{"source": "patent US6358885B1", "about": "“Substituted phenylheterocyclic herbicides” (Mississippi State University, priority 1992, dated 2002)", "key": {"[1]": {"tested_on": "chickweed", "test": "Test C preemergence/postemergence greenhouse plant response rating 0 to 100", "assay_type": "in vivo, Stellaria media", "details": "POSTEMERGENCE; for Plant response rating, Chickweed: 0 to 100 scale", "summary_of_the_method": "(§1)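 Compounds in non-phytotoxic solvent went onto sandy loam before emergence (seeded one day earlier) or onto plants at the one-to-four leaf stage. Duck salad was treated via flood water (~2.5 cm, maintained) over silt loam.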"}, "[2]": {"tested_on": "wild oat", "test": "Test B preemergence/postemergence greenhouse plant response rating 0 to 10", "assay_type": "in vivo, Avena fatua", "details": "POSTEMERGENCE, 0 to 10 scale", "summary_of_the_method": "(§2)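 Postemergence treatment of plants two to eighteen cm tall ran alongside preemergence treatment of planted seed, each using compound in a non-phytotoxic solvent.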"}, "[3]": {"tested_on": "sorghum", "test": "Test B preemergence/postemergence greenhouse plant response rating 0 to 10", "assay_type": "in vivo, Sorghum bicolor", "details": "0 to 10 scale", "summary_of_the_method": "as §2"}, "[4]": {"tested_on": "downy brome", "test": "Test C preemergence/postemergence greenhouse plant response rating 0 to 100", "assay_type": "in vivo, Bromus tectorum", "details": "POSTEMERGENCE; for Plant response rating Downy Brome: 0 to 100 scale", "summary_of_the_method": "as §1"}, "[5]": {"tested_on": "wheat", "test": "Test B preemergence/postemergence greenhouse plant response rating 0 to 10", "assay_type": "in vivo, Triticum aestivum", "details": "0 to 10 scale", "summary_of_the_method": "as §2"}, "[6]": {"tested_on": "wild buckwheat", "test": "Test C preemergence/postemergence greenhouse plant response rating 0 to 100", "assay_type": "in vivo, Polygonum convolvulus", "details": "POSTEMERGENCE; for Plant response rating, Wild buckwheat: 0 to 100 scale", "summary_of_the_method": "as §1"}, "[7]": {"tested_on": "morningglory", "test": "Test B preemergence/postemergence greenhouse plant response rating 0 to 10", "assay_type": "in vivo, Ipomoea hederacea", "details": "0 to 10 scale", "summary_of_the_method": "as §2"}, "[8]": {"tested_on": "crabgrass", "test": "Test B preemergence/postemergence greenhouse plant response rating 0 to 10", "assay_type": "in vivo, Digitaria spp.", "details": "for Plant response rating, Crabgrass: 0 to 10 scale", "summary_of_the_method": "as §2"}, "[9]": {"tested_on": "barley", "test": "Test C preemergence/postemergence greenhouse plant response rating 0 to 100", "assay_type": "in vivo, Hordeum vulgare", "details": "POSTEMERGENCE; for Plant response rating Barley Igri: 0 to 100 scale", "summary_of_the_method": "as §1"}, "[10]": {"tested_on": "rape", "test": "Test B preemergence/postemergence greenhouse plant response rating 0 to 10", "assay_type": "in vivo, Brassica napus", "details": "0 to 10 scale", "summary_of_the_method": "as §2"}, "[11]": {"tested_on": "morningglory", "test": "Test C preemergence/postemergence greenhouse plant response rating 0 to 100", "assay_type": "in vivo, Ipomoea hederacea", "details": "POSTEMERGENCE; for Plant response rating, Morningglory: 0 to 100 scale", "summary_of_the_method": "as §1"}, "[12]": {"tested_on": "purple nutsedge", "test": "Test B preemergence/postemergence greenhouse plant response rating 0 to 10", "assay_type": "in vivo, Cyperus rotundus", "details": "0 to 10 scale", "summary_of_the_method": "as §2"}, "[13]": {"tested_on": "soybean", "test": "Test C preemergence/postemergence greenhouse plant response rating 0 to 100", "assay_type": "in vivo, Glycine max", "details": "POSTEMERGENCE; for Plant response rating, Soybean: 0 to 100 scale", "summary_of_the_method": "as §1"}, "[14]": {"tested_on": "umbrella sedge", "test": "Test C flood test plant response rating 0 to 100", "assay_type": "in vivo, Cyperus difformis", "details": "for Plant response rating Umbrella sedge: flood test species listed under POSTEMERGENCE, 0 to 100 scale", "summary_of_the_method": "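Compounds in non-phytotoxic solvent applied preemergence to sandy loam one day after planting, postemergence at the 1–4 leaf stage, or to ~2.5 cm floodwater over silt loam.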"}, "[15]": {"tested_on": "corn", "test": "Test B preemergence/postemergence greenhouse plant response rating 0 to 10", "assay_type": "in vivo, Zea mays", "details": "for Plant response rating, Corn: 0 to 10 scale", "summary_of_the_method": "as §2"}, "[16]": {"tested_on": "soybean", "test": "Test B preemergence/postemergence greenhouse plant response rating 0 to 10", "assay_type": "in vivo, Glycine max", "details": "0 to 10 scale", "summary_of_the_method": "as §2"}, "[17]": {"tested_on": "chickweed", "test": "Test B preemergence/postemergence greenhouse plant response rating 0 to 10", "assay_type": "in vivo, Stellaria media", "details": "0 to 10 scale", "summary_of_the_method": "as §2"}, "[18]": {"tested_on": "bedstraw", "test": "Test C preemergence/postemergence greenhouse plant response rating 0 to 100", "assay_type": "in vivo, Galium aparine", "details": "POSTEMERGENCE; for Plant response rating, Bedstraw: 0 to 100 scale", "summary_of_the_method": "as §1"}}}
{"smiles": "COc1cc(-c2nn3c(c2Cl)CCCC3)c(F)cc1Cl", "note": "[Compound 29]", "values": [{"measurement": "Plant response rating, Chickweed", "setting": "[1]; 62 g/ha", "value": 60}, {"measurement": "Plant response rating, Chickweed", "setting": "[1]; 250 g/ha", "value": 95}, {"measurement": "Plant response rating (0 to 100), Chickweed", "setting": "[1]; Rate 4 g/ha", "value": 10}, {"measurement": "Plant response rating (0 to 100), Chickweed", "setting": "[1]; Rate 16 g/ha", "value": 40}, {"measurement": "Plant response rating, Wild oat", "setting": "[2]; Rate 50 g/ha", "value": 5}, {"measurement": "Plant response rating, Wild oat", "setting": "[2]; Rate 200 g/ha", "value": 7}, {"measurement": "Plant response rating, Sorghum", "setting": "[3]; POSTEMERGENCE, Rate 50 g/ha", "value": 5}, {"measurement": "Plant response rating, Sorghum", "setting": "[3]; PREEMERGENCE, Rate 50 g/ha", "value": 0}, {"measurement": "Plant response rating, Sorghum", "setting": "[3]; Rate 200 g/ha, POSTEMERGENCE", "value": 6}, {"measurement": "Plant response rating, Sorghum", "setting": "[3]; Rate 200 g/ha, PREEMERGENCE", "value": 1}, {"measurement": "Plant response rating Downy Brome", "setting": "[4]; 62 g/ha", "value": 80}, {"measurement": "Plant response rating Downy Brome", "setting": "[4]; 250 g/ha", "value": 95}, {"measurement": "Plant response rating (0 to 100), Downy Brome", "setting": "[4]; Rate 4 g/ha", "value": 20}, {"measurement": "Plant response rating (0 to 100), Downy Brome", "setting": "[4]; Rate 16 g/ha", "value": 60}, {"measurement": "Plant response rating, Wheat", "setting": "[5]; POSTEMERGENCE, Rate 50 g/ha", "value": 4}, {"measurement": "Plant response rating, Wheat", "setting": "[5]; PREEMERGENCE, Rate 50 g/ha", "value": 0}, {"measurement": "Plant response rating, Wheat", "setting": "[5]; Rate 200 g/ha, POSTEMERGENCE", "value": 6}, {"measurement": "Plant response rating, Wheat", "setting": "[5]; Rate 200 g/ha, PREEMERGENCE", "value": 4}, {"measurement": "Plant response rating, Wild buckwheat", "setting": "[6]; 62 g/ha", "value": 100}, {"measurement": "Plant response rating, Wild buckwheat", "setting": "[6]; 250 g/ha", "value": 100}, {"measurement": "Plant response rating (0 to 100), Wild buckwheat", "setting": "[6]; Rate 4 g/ha", "value": 80}, {"measurement": "Plant response rating (0 to 100), Wild buckwheat", "setting": "[6]; Rate 16 g/ha", "value": 90}, {"measurement": "Plant response rating, Morningglory", "setting": "[7]; POSTEMERGENCE, Rate 50 g/ha", "value": 8}, {"measurement": "Plant response rating, Morningglory", "setting": "[7]; PREEMERGENCE, Rate 50 g/ha", "value": 2}, {"measurement": "Plant response rating, Morningglory", "setting": "[7]; Rate 200 g/ha, POSTEMERGENCE", "value": 10}, {"measurement": "Plant response rating, Morningglory", "setting": "[7]; Rate 200 g/ha, PREEMERGENCE", "value": 5}, {"measurement": "Plant response rating (0 to 10 scale), Crabgrass", "setting": "[8]; POSTEMERGENCE, Rate 50 g/ha", "value": 4}, {"measurement": "Plant response rating, Crabgrass", "setting": "[8]; POSTEMERGENCE, Rate 200 g/ha", "value": 5}, {"measurement": "Plant response rating, Crabgrass", "setting": "[8]; PREEMERGENCE, Rate 50 g/ha", "value": 8}, {"measurement": "Plant response rating, Crabgrass", "setting": "[8]; Rate 200 g/ha, PREEMERGENCE", "value": 9}, {"measurement": "Plant response rating Barley Igri", "setting": "[9]; 62 g/ha", "value": 60}, {"measurement": "Plant response rating Barley Igri", "setting": "[9]; 250 g/ha", "value": 90}, {"measurement": "Plant response rating (0 to 100), Barley Igri", "setting": "[9]; Rate 4 g/ha", "value": 20}, {"measurement": "Plant response rating (0 to 100), Barley Igri", "setting": "[9]; Rate 16 g/ha", "value": 40}, {"measurement": "Plant response rating, Rape", "setting": "[10]; POSTEMERGENCE, Rate 50 g/ha", "value": 8}, {"measurement": "Plant response rating, Rape", "setting": "[10]; PREEMERGENCE, Rate 50 g/ha", "value": 8}, {"measurement": "Plant response rating, Rape", "setting": "[10]; Rate 200 g/ha, POSTEMERGENCE", "value": 10}, {"measurement": "Plant response rating, Rape", "setting": "[10]; Rate 200 g/ha, PREEMERGENCE", "value": 10}, {"measurement": "Plant response rating, Morningglory", "setting": "[11]; 62 g/ha", "value": 80}, {"measurement": "Plant response rating, Morningglory", "setting": "[11]; 250 g/ha", "value": 100}, {"measurement": "Plant response rating (0 to 100), Morningglory", "setting": "[11]; Rate 4 g/ha", "value": 70}, {"measurement": "Plant response rating (0 to 100), Morningglory", "setting": "[11]; Rate 16 g/ha", "value": 80}, {"measurement": "Plant response rating, Nutsedge", "setting": "[12]; POSTEMERGENCE, Rate 50 g/ha", "value": 4}, {"measurement": "Plant response rating, Nutsedge", "setting": "[12]; PREEMERGENCE, Rate 50 g/ha", "value": 0}, {"measurement": "Plant response rating, Nutsedge", "setting": "[12]; Rate 200 g/ha, POSTEMERGENCE", "value": 4}, {"measurement": "Plant response rating, Nutsedge", "setting": "[12]; Rate 200 g/ha, PREEMERGENCE", "value": 0}, {"measurement": "Plant response rating, Soybean", "setting": "[13]; 62 g/ha", "value": 60}, {"measurement": "Plant response rating, Soybean", "setting": "[13]; 250 g/ha", "value": 100}, {"measurement": "Plant response rating (0 to 100), Soybean", "setting": "[13]; Rate 4 g/ha", "value": 10}, {"measurement": "Plant response rating (0 to 100), Soybean", "setting": "[13]; Rate 16 g/ha", "value": 50}, {"measurement": "Plant response rating (0 to 100), Umbrella sedge", "setting": "[14]; POSTEMERGENCE section, flood test, Rate 4 g/ha", "value": 20}, {"measurement": "Plant response rating (0 to 100), Umbrella sedge", "setting": "[14]; Rate 16 g/ha, under POSTEMERGENCE head (flood test species)", "value": 30}, {"measurement": "Plant response rating Umbrella sedge", "setting": "[14]; 62 g/ha", "value": 90}, {"measurement": "Plant response rating Umbrella sedge", "setting": "[14]; 250 g/ha", "value": 95}, {"measurement": "Plant response rating (0 to 10 scale), Corn", "setting": "[15]; POSTEMERGENCE, Rate 50 g/ha", "value": 6}, {"measurement": "Plant response rating, Corn", "setting": "[15]; POSTEMERGENCE, Rate 200 g/ha", "value": 7}, {"measurement": "Plant response rating, Corn", "setting": "[15]; PREEMERGENCE, Rate 50 g/ha", "value": 0}, {"measurement": "Plant response rating, Corn", "setting": "[15]; Rate 200 g/ha, PREEMERGENCE", "value": 6}, {"measurement": "Plant response rating, Soybean", "setting": "[16]; POSTEMERGENCE, Rate 50 g/ha", "value": 8}, {"measurement": "Plant response rating, Soybean", "setting": "[16]; PREEMERGENCE, Rate 50 g/ha", "value": 1}, {"measurement": "Plant response rating, Soybean", "setting": "[16]; Rate 200 g/ha, POSTEMERGENCE", "value": 9}, {"measurement": "Plant response rating, Soybean", "setting": "[16]; Rate 200 g/ha, PREEMERGENCE", "value": 5}, {"measurement": "Plant response rating, Chickweed", "setting": "[17]; POSTEMERGENCE, Rate 200 g/ha", "value": 8}, {"measurement": "Plant response rating, Chickweed", "setting": "[17]; PREEMERGENCE, Rate 50 g/ha", "value": 3}, {"measurement": "Plant response rating, Chickweed", "setting": "[17]; Rate 200 g/ha, PREEMERGENCE", "value": 7}, {"measurement": "Plant response rating, Bedstraw", "setting": "[18]; 62 g/ha", "value": 100}, {"measurement": "Plant response rating, Bedstraw", "setting": "[18]; 250 g/ha", "value": 100}, {"measurement": "Plant response rating (0 to 100), Bedstraw", "setting": "[18]; Rate 4 g/ha", "value": 90}, {"measurement": "Plant response rating (0 to 100), Bedstraw", "setting": "[18]; Rate 16 g/ha", "value": 100}]}
